# Results as given in PMC8421406, “C9orf72-derived arginine-rich poly-dipeptides impede phase modifiers” (Nature Communications, 2021).
# Entries after “also recorded” stand apart in the source; their conditions may differ. Where no end group is shown, it is not given here. HA = HA epitope tag
# System: Kapβ2
# Test: Solution NMR (1H-13C methyl) of labelled Kapβ2
# Type: binding
# Description: The Kapβ2 expression plasmid was transformed into BL21(DE3) cells. The protein samples with ^1H,^13C-labeled methyl groups in deuterium background were prepared as described in a previous study. The cells were grown in medium with ^15NH4Cl (2 gL^−1, CIL) and ^2H7-glucose (2 g L^−1, CIL) in 99.9% ^2H2O (Isotec). The precursors for methyl groups of Ile, Val, and Leu, α-ketobutyric acid (50 mg L^−1) and α-ketoisovaleric acid (80 mg L^−1), and [^13CH3] methionine (50 mg L^−1) were added to the culture 1 h before the addition of IPTG. Protein expression was induced by the addition of 0.5 mM IPTG at OD600 ~ 0.6, followed by ~16 h of incubation at 25 °C. […] Protein concentration was determined spectrophotometrically at 280 nm using a corresponding extinction coefficient.
# The isotopically labeled Kapβ2 was prepared in the NMR buffer containing 20 mM ^2H-Tris pH 7.4, 150 mM NaCl, 2 mM MgCl2, 2 mM DTT, and 2% glycerol, concentrated to 20 μM. […] Perturbation of the side chain methyl resonances were each monitored using ^1H-^13C heteronuclear multiple quantum coherence. […] The perturbations of the resonances were evaluated based on chemical shift change or intensity change. […]
# In order to investigate the interaction between Kapβ2 and PR poly-dipeptide by NMR, the NMR spectra of the isotopically labeled Kapβ2 in the absence and presence of the synthetic peptide of PR20:HA were measured. […]
substance,measurement,setting,value
"PR20: twenty repeats of proline:arginine with an HA epitope tag at the C terminus, synthesized by SCRUM, Inc. (PRPRPRPRPRPRPRPRPRPRPRPRPRPRPRPRPRPRPRPR-{HA})",Perturbation of Kapβ2 methyl resonances,"20 μM labelled Kapβ2, 20 °C, 20 mM Tris pH 7.4, 150 mM NaCl, 600/800 MHz",induced significant perturbations to several resonances of Kapβ2; also recorded: several resonances show significant perturbations induced only by PR20
same,Binding site on Kapβ2 by NMR,"comparison of perturbations by PR20, M9M and FUS-ΔNLS",partially occupy the NLS-binding site of Kapβ2
